Data as given in patent publication US20150125546A1, “COMBINATION THERAPY FOR TREATING PULMONARY HYPERTENSION” (Gilead Sciences, Inc., priority 2013, published 2015).
pKi: −log10 of the molar value. Where two headings read alike, the source gives them in different places. Ends that are not written are not given here.

Assays:
[1] = tested on: cGMP synthesis in isolated intrapulmonary arteries; assay: cGMP content in isolated rat intrapulmonary arteries; conditions: for ET-1-stimulated cGMP synthesis in the presence of bosentan / ET-1 plus riociguat-stimulated cGMP synthesis in the presence of bosentan: 100 nM bosentan; for ET-1-stimulated cGMP synthesis in the presence of bosentan: 8 nM ET-1; for ET-1 plus riociguat-stimulated cGMP synthesis in the presence of bosentan: 8 nM ET-1 plus 30 nM riociguat
[2] = tested on: endothelin-1 (ET-1)-constricted intrapulmonary arteries isolated from rats; assay: relaxation of ET-1-induced contraction of isolated rat intrapulmonary arterial rings; conditions: for relaxation of ET-1-constricted intrapulmonary arteries: 8 nM ET-1; for effect on potency of the other drug to relax ET-1 constricted rat pulmonary arteries: qualitative (FIG. 6, FIG. 7)
[3] = tested on: phosphorylation of MLC2 by MLCK; assay: ET-1-stimulated phosphorylation of MLC2 by MLCK in rat pulmonary arteries; conditions: qualitative (FIG. 10)
Excerpt: Further, ambrisentan and riociguat attenuated ET-1 stimulated phosphorylation of MLC2 by MLCK in rat pulmonary arteries (FIG. 10).

ETA receptor = target: T1, ETA receptor (Homo sapiens, UniProt P25101); conditions: background statement; read-out: affinity for the ETA receptor; cited from earlier work
T1 sequence (P25101 21-427): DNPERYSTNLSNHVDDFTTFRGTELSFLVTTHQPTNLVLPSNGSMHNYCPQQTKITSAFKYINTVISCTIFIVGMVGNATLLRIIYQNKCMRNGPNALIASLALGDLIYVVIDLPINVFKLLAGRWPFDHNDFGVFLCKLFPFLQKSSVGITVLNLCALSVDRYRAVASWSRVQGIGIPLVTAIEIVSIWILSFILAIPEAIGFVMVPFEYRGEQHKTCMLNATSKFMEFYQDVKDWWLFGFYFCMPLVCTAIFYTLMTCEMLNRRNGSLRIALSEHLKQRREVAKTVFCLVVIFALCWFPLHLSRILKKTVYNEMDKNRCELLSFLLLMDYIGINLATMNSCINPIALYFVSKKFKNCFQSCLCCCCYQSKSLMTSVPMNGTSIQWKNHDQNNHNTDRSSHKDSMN

[4] = 30 nM alone, another run (FIG. 3, FIG. 4)
[5] = 30 nM alone, first run (FIG. 2), mean±SEM

Compound: COC(=O)N(C)c1c(N)nc(-c2nn(Cc3ccccc3F)c3ncccc23)nc1N [riociguat, methyl (4,6-diamino-2-(1-(2-fluorobenzyl)-1H-pyrazolo[3,4-b]pyridin-3-yl)pyrimidin-5-yl)(methyl)carbamate]
- content of cGMP ([1]; 10 nM ET-1 and 30 nM riociguat in combination): 96±7 pmol/g tissue
- content of cGMP ([1]; 30 nM riociguat alone): 34±5 pmol/g tissue
- effect on ET-1-stimulated cGMP production ([1]; qualitative (FIG. 8)): potentiated ET-1-stimulated cGMP production
- relaxation of ET-1-constricted intrapulmonary arteries [2, 4]: 23.2±6.5%
- relaxation of ET-1-constricted intrapulmonary arteries [2, 5]: 23±3%
- effect on potency of the other drug to relax ET-1 constricted rat pulmonary arteries [2]: increased the potency of ambrisentan
- effect on ET-1 stimulated phosphorylation of MLC2 by MLCK [3]: attenuated

Compound: COC(c1ccccc1)(c1ccccc1)[C@H](Oc1nc(C)cc(C)n1)C(=O)O [ambrisentan, (2S)-2-[(4,6-dimethylpyrimidin-2-yl)oxy]-3-methoxy-3,3-diphenylpropanoic acid]
- blocking of ET-1 and its combination with riociguat to stimulate cGMP synthesis ([1]; qualitative): but not ambrisentan, significantly blocked
- relaxation of ET-1-constricted intrapulmonary arteries ([2]; 10 nM alone, another run (FIG. 3), mean±SEM): 28.5±6.4%
- relaxation of ET-1-constricted intrapulmonary arteries ([2]; 10 nM alone, first run (FIG. 2), mean±SEM): 29±6%
- effect on potency of the other drug to relax ET-1 constricted rat pulmonary arteries [2]: increased the potency of riociguat
- pKi (ETA receptor): ~10.92
- effect on ET-1 stimulated phosphorylation of MLC2 by MLCK [3]: attenuated

Compound: COC(=O)[C@@H](N)CCCN=C(N)N[N+](=O)[O-].Cl [L-NAME]
- blocking of ET-1 and its combination with riociguat to stimulate cGMP synthesis [1]: significantly blocked

Compound: CCCNS(=O)(=O)Nc1ncnc(OCCOc2ncc(Br)cn2)c1-c1ccc(Br)cc1 [macitentan]
- relaxation of ET-1-constricted intrapulmonary arteries [2, 4]: 30.1%
- relaxation of ET-1-constricted intrapulmonary arteries [2, 5]: 30±6%

Compound: Endothelin-1 (CSCSSLMDKECVYFCHLDIIW; ends and bridges not checked; cysteine pairing not given here; UniProt P05305 53-73, looked up) [ET-1]
- content of cGMP ([1]; 10 nM ET-1 alone): 37±4 pmol/g tissue

Compound: COc1ccccc1Oc1c(NS(=O)(=O)c2ccc(C(C)(C)C)cc2)nc(-c2ncccn2)nc1OCCO [bosentan]
- ET-1-stimulated cGMP synthesis in the presence of bosentan ([1]; another run (FIG. 9)): 36 pmol/g tissue
- ET-1-stimulated cGMP synthesis in the presence of bosentan ([1]; first run): 21±3 pmol/g tissue
- ET-1 plus riociguat-stimulated cGMP synthesis in the presence of bosentan ([1]; another run (FIG. 9)): 97 pmol/g tissue
- ET-1 plus riociguat-stimulated cGMP synthesis in the presence of bosentan ([1]; first run): 37±3 pmol/g tissue
- blocking of ET-1 and its combination with riociguat to stimulate cGMP synthesis ([1]; qualitative): significantly blocked
- relaxation of ET-1-constricted intrapulmonary arteries ([2]; 100 nM alone, another run (FIG. 4)): 19.8%
- relaxation of ET-1-constricted intrapulmonary arteries ([2]; 100 nM alone, first run (FIG. 2), mean±SEM): 23±3%
